Earlier results on two compounds are cited in US11229703B2, “Radiotherapy improvements” (NOXOPHARM LIMITED, priority 2016, dated 2022).

For data set [1], the system named is cancer, especially metastatic disease involving solid tumours. As to conditions: compound alone, various clinical trials.
Data set [2] deals with hormone refractory prostate cancer. As to conditions: males with hormone refractory prostate cancer given idronoxil ranging from 20 to 400 mg; 6 months from treatment.

`O=c1c(-c2ccc(O)cc2)coc2cc(O)cc(O)c12` [genestein, reference compound]: in data set [1], the “complete or partial response to cancer” value is “unable to provide either a complete or partial response”. As for `Oc1ccc(C2=Cc3ccc(O)cc3OC2)cc1` [idronoxil, 2H-1-Benzopyran-7-0,1,3-(4-hydroxyphenyl)], in data set [2], the disease progression result was “disease had progressed in most individuals by 6 months”. In addition, the “complete or partial response to cancer” value in data set [1] is reported as “unable to provide either a complete or partial response”.
